Experiment [1] deals with T1, vasopressin receptors (V2 -receptors) (Sus scrofa, UniProt P32307).
T1 construct: from tissue; host or cells: hog kidney medullary membranes
The experiment is described as follows: 3H-vasopressin binding assay, hog kidney medullary membranes. The following applies: competitive inhibition of 3H-vasopressin binding, read-out: Swine KB. How it is done:
Antagonistic activity toward the natural antidiuretic hormone (anti-ADH activity) is determined, in vitro, in the medullary tissue of hog or human kidneys and, in vivo, in the hydropenic rat. The in vitro assay procedures for vasopressin stimulated adenylate cyclase activation or vasopression binding activity are described by F. Stassen et al., J. Pharmacology and Experimental Therapeutics, 223, 50-54 (1982).
These values represent total and non-specific binding, respectively.

The target of experiment [2] is vasopressin stimulated adenylate cyclase. The experiment is described as follows: Vasopressin stimulated adenylate cyclase activity, human kidney medullary tissue. It is filed as biochemical. The note with it: human kidney medullary membrane. How it is done:
(§1) In the test procedure for assay of adenylate cyclase activity, the amount of ^32 P/cAMP formed in the absence of medullary membrane is determined (blank). The blank value is subtracted from all experimental data. The compound is tested for its effect on basal adenylate cyclase activity and/or on vasopressin stimulated activity. Each determination is carried out in triplicate. The Ka value is derived from a Lineweaver-Burkeplot. Rel. Vmax =(Vmax drug/Vmax vasopressin)×100. Ki =I/[Ka'/Ka)-1] where I is the concentration of the antagonist, and Ka' and Ka are the concentrations of vasopressin required to give half maximal activity of adenylate cyclase in the presence and absence of antagonist, respectively.

Experiment [3] shares this target. Nature of the experiment: Vasopressin stimulated adenylate cyclase activity, hog kidney medullary tissue. It is filed as biochemical. The note with it: swine kidney medullary membrane. The method, then: as §1
Experiment [4] concerns hydropenic rat. The experiment is described as follows: Hydropenic rat screen (anti-ADH activity in vivo). The following applies: dose required to lower urine osmolality to 300 m-Osmoles/kg; intraperitoneal; hydropenic male rats. The method, then:
The assay for anti-ADH activity in vivo is the hydropenic rat protocol described below:
Food and water are removed from male rats approximately 18 hours prior to testing. Animals are housed 4 per metabolism cage. At 0 hour, the test compound is administered intraperitoneally to the test group and an equivalent volume of vehicle is administered to both control groups (fasted and non-fasted). Urine volume and osmolality are measured every hour for 4 hours. Test values are recorded as ml of urine excreted (cumulative), mEq/rat electrolyte excreted, mg/rat urea excreted, and osmolality in milli-Osmoles/kg H2 O. A tolerance test is used to determine significance. Ed300 is defined as the dose of compound (μg/kg) required to lower urine osmolality to 300 m-Osmoles/kg.

As a reminder, the Ki is a measure of affinity in units of concentration, obtained from inhibition or displacement. A low value points to a stronger hold on the target.

Molecules are shown by their SMILES. Starred links: 1 amine or outer side, 2 acyl side, 3 side chain; linkers in the order of their positions; H or OH if unused. Positions of bridges follow the written chain, without caps; N, C: chain ends. Non-standard residues stand in square brackets, D forms with d. Residues, ends and D or L forms follow the SMILES beside them. *: point of attachment. X1 = O=C(CC1(S[*:2])CCCCC1)[*:1]; Agmatine = N=C(N)NCCCCN*; NH(CH2)5NH2 = NCCCCCN*; NH(CH2)4NH2 = NCCCCN*

T1 sequence (P32307 whole entry): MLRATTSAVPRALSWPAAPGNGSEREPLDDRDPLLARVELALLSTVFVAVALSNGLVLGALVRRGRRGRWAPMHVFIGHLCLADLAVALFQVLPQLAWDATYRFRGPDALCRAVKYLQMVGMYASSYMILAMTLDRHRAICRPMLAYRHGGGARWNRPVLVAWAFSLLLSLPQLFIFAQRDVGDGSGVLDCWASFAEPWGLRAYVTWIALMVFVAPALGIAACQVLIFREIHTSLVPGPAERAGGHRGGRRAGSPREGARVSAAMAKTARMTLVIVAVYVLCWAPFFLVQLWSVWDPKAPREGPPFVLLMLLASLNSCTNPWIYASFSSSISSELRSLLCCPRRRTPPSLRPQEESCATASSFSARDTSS

Consider `CC(C)[C@@H]1NC(=O)[C@H](Cc2ccccc2)NC(=O)[C@@H](Cc2ccc(O)cc2)NC(=O)CC2(CCCCC2)SSC[C@@H](C(=O)N2CCC[C@H]2C(=O)NCCCCCN)NC(=O)[C@H](CC(N)=O)NC1=O` [A, [1-(β-Mercapto-β,β -cyclopentamethylenepropionic acid)-2-D-tyrosine-4-valine-8-(1,5-diaminopentane)-8-desarginine-9-desglycineamide]-vasopressin] (HELM PEPTIDE1{[dY].F.V.N.C.P.[NCCCCCN[*:1]]}|CHEM1{[O=C(CC1(S[*:2])CCCCC1)[*:1]]}$PEPTIDE1,CHEM1,1:R1-1:R1|PEPTIDE1,CHEM1,5:R3-1:R2$$$V2.0), for which, in experiment [1], the Kb was determined as 0.22 µM. Regarding `CCOc1ccc(C[C@H]2NC(=O)CC3(CCCCC3)SSC[C@@H](C(=O)N3CCC[C@H]3C(=O)NCCCCCN)NC(=O)[C@H](CC(N)=O)NC(=O)[C@H](C(C)C)NC(=O)[C@H](Cc3ccccc3)NC2=O)cc1` [B, [1-(β-Mercapto-β,β -cyclopentamethylenepropionic acid)-2-(O--ethyl-D-tyrosine)-4-valine-8-(1,5-diaminopentane)-8-desarginine-9-desglycinamide]-vasopressin] ([dY](Et)FVNCP-{NH(CH2)5NH2}; linker N-5 via X1), in experiment [1], the Kb amounted to 0.029 µM. For `CCOc1ccc(C[C@H]2NC(=O)CC3(CCCCC3)SSC[C@@H](C(=O)N3CCC[C@H]3C(=O)NCCCCN)NC(=O)[C@H](CC(N)=O)NC(=O)[C@H](C(C)C)NC(=O)[C@H](Cc3ccccc3)NC2=O)cc1` [C, [1-(β-Mercapto-β,β -cyclopentamethylenepropionic acid)-2-(O--ethyl-D-tyrosine)-4-valine-8-(1,4-diaminobutane)-8-desarginine-9-desglycinamide]-vasopressin] ([dY](Et)FVNCP-{NH(CH2)4NH2}; linker N-5 via X1), the Ki in experiment [2] turned out to be 0.0075 µM; in experiment [3], 0.0064 µM. Besides, the Kb in experiment [1] is 0.0092 µM. The “Rat ED300” value in experiment [4] came out at 0.019 mg/kg. In the case of `CCOc1ccc(C[C@H]2NC(=O)CC3(CCCCC3)SSC[C@@H](C(=O)N3CCC[C@H]3C(=O)O)NC(=O)[C@H](CC(N)=O)NC(=O)[C@H](C(C)C)NC(=O)[C@H](Cc3ccccc3)NC2=O)cc1` [D, [1-(β-Mercapto-β,β -cyclopentamethylenepropionic acid)-2-(O--ethyl-D-tyrosine)-4-valine-8-desarginine-9-desglycinamide]-vasopressin] ([dY](Et)FVNCP-OH; linker N-5 via X1), the Kb in experiment [1] was 0.41 µM.

As to `CC(C)[C@@H]1NC(=O)[C@H](Cc2ccccc2)NC(=O)[C@@H](Cc2ccc(O)cc2)NC(=O)CC2(CCCCC2)SSC[C@@H](C(=O)N2CCC[C@H]2C(=O)O)NC(=O)[C@H](CC(N)=O)NC1=O` [E, [1-(β-Mercapto-β,β -cyclopentamethylenepropionic acid)-2-D-tyrosine-4-valine-8-desarginine-9-desglycinamide]-vasopressin] (HELM PEPTIDE1{[dY].F.V.N.C.P}|CHEM1{[O=C(CC1(S[*:2])CCCCC1)[*:1]]}$PEPTIDE1,CHEM1,1:R1-1:R1|PEPTIDE1,CHEM1,5:R3-1:R2$$$V2.0), the Kb in experiment [1] was found to be 17 µM. As to `CCOc1ccc(C[C@H]2NC(=O)CC3(CCCCC3)SSC[C@@H](C(=O)NCCCCCN)NC(=O)[C@H](CC(N)=O)NC(=O)[C@H](C(C)C)NC(=O)[C@H](Cc3ccccc3)NC2=O)cc1` [F, [1-(β-Mercapto-β,β -cyclopentamethylenepropionic acid)-2-(O--ethyl-D-tyrosine)-4-valine-7-desproline-8-desarginine-9-desglycinamide-7-(1,5-diaminopentane)]-vasopressin], the Kb in experiment [1] was 0.019 µM. Still for that read-out and setting: as for `CCOc1ccc(C[C@H]2NC(=O)CC3(CCCCC3)SSC[C@@H](C(=O)N3CCC[C@H]3C(=O)NCCCCN=C(N)N)NC(=O)[C@H](CC(N)=O)NC(=O)[C@H](C(C)C)NC(=O)[C@H](Cc3ccccc3)NC2=O)cc1` [G, [1-(β-Mercapto-β,β -cyclopentamethylenepropionic acid)-2-(O--ethyl-D-tyrosine)-4-valine-8-desarginine-9-desglycinamide-8-(1,4-aminoguanidinobutane)]-vasopressin] ([dY](Et)FVNCP-Agmatine; linker N-5 via X1), the figure is 0.014 µM.

(Values after patent US4543349A, “Basic heptapeptide vasopressin antagonists” (priority 1984, dated 1985).)
